System: GM-CSF-induced STAT5 phosphorylation
Assay: Whole blood assay, GM-CSF stimulation, phospho-STAT5 by FACS
Format: cell-based
Settings: human whole blood, CD14+ cells, 8 different donors
Description: In addition, a flow cytometry analysis was performed to establish JAK1 over JAK2 compound selectivity ex vivo using human whole blood. Therefore, blood was taken from human volunteers who gave informed consent. Blood was then equilibrated for 30 min at 37° C. under gentle rocking, then aliquoted in Eppendorf tubes. Compound was added at different concentrations and incubated at 37° C. for 30 min under gentle rocking and subsequently stimulated for 20 min at 37° C. under gentle rocking with interleukin 6 (IL-6) for JAK1-dependent pathway stimulation or GM-CSF for JAK2-dependent pathway stimulation. Phospho-STAT1 and phospho-STAT5 were then evaluated using FACS analysis.
For GM-CSF-stimulated increase of Signal Transducers and Activators of Transcription 5 (pSTAT5) phosphorylation in white blood cell, human whole blood, drawn from human volunteers who gave informed consent, is ex vivo treated with compound for 30 min and subsequently stimulated for 20 min with GM-CSF. The increase in phosphorylation of STAT5 by GM-CSF in monocytes is measured using an anti phospho-STAT5 antibody by FACS. […]
Cells are then washed once with 1×PBS and analyzed on a FACSCanto II flow cytometer (BD Biosciences).
50,000 total events are counted and Phospho-STAT5 positive cells are measured after gating on CD14+ cells. […]

IC50: > 22.4 µM
Compound: CCc1cc(C2CN(S(C)(=O)=O)C2)ncc1N(C)c1cc2c(cn1)ncn2C [Compound 1, [4-Ethyl-6-(1-methanesulfonyl-azetidin-3-yl)-pyridin-3-yl]-methyl-(1-methyl-1H-imidazo[4,5-d]pyridin-6-yl)-amine]
